Measurements taken from ChEMBL document CHEMBL3638542, “Imidazo[1,2-a]pyridine derivatives: preparation and pharmaceutical applications” (2014).

Biological target: Histone deacetylase 1 (Homo sapiens, UniProt Q13547)
Assay: BIOMOL Fluorescent-Based Assay: The assay has been carried out in 96 well format and the BIOMOL fluorescent-based HDAC activity assay has been applied. The reaction composed of assay buffer, containing 25 mM Tris pH 7.5, 137 mM NaCl, 2.7 mM KCl, 1 mM MgCl2, 1 mg/ml BSA, tested compounds, an appropriate concentration of HDAC1 enzyme, 500 uM Flur de lys generic substrate for HDAC1 enzyme and subsequently was incubated at room temperature for 2 h. Flur de lys Developer was added and the reaction was incubated for 10 min. Briefly, deacetylation of the substrate sensitizes it to the developer, which then generates a fluorophore. The fluorophore is excited with 360 nm light and the emitted light (460 nm) is detected on a fluorometric plate reader (Tecan Ultra Microplate detection system, Tecan Group Ltd.).

Histone deacetylase 1, sequence (Q13547 whole entry): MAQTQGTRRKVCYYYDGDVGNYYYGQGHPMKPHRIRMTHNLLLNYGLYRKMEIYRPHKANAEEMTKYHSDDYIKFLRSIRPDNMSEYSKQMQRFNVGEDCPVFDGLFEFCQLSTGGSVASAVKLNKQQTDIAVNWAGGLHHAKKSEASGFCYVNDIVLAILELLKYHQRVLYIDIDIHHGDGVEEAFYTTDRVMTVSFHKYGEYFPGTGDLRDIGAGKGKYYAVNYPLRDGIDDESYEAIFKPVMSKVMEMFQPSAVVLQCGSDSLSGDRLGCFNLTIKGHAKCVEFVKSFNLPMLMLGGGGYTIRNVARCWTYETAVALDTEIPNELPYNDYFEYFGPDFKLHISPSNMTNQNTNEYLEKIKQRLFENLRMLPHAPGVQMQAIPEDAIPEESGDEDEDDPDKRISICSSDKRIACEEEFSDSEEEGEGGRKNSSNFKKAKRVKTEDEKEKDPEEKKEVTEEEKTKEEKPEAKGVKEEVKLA

SMILES: COCCNc1c(CCC(=O)O)nc2ccc(/C=C/C(=O)NO)cn12
- IC50: 320 nM

SMILES: CC(C)(C)Nc1c(C(=O)O)nc2ccc(/C=C/C(=O)NO)cn12
- IC50: > 10000 nM

SMILES: CCCCCCc1nc2cc(/C=C/C(=O)NO)ccn2c1NCCC(=O)N(C)CC#N
- IC50: > 10000 nM

SMILES: CCCCc1nc2cc(/C=C/C(=O)NO)ccn2c1CN(CC)CC(C)CCC (centres undefined)
- IC50: 60 nM
